Assay [1] deals with Smurf1C2. The experiment in a line: UbFluor fluorescence polarization assay. In kind it is biochemical, Homo sapiens. To be noted: 0.5 µM enzyme, 2 µM UbFluor, pH 7.4, 0.01% Tween20. A general note: Fluorescence polarisation rises when a labelled molecule tumbles more slowly, as on binding a larger partner.
Assay [2] concerns the target T1, Smurf1 HECT (Homo sapiens, UniProt Q9HCE7). The experiment in a line: biolayer interferometry. In kind it is binding.
In assay [3] the target is Smurf1 FL (Homo sapiens, UniProt Q9HCE7). The experiment in a line: UbFluor fluorescence polarization assay. The format is biochemical.
Assay [4] deals with T1, Smurf1 HECT. The experiment in a line: UbFluor fluorescence polarization assay. The format is biochemical.

SMILES strings stand for the structures.

Broadly, the IC50 is the concentration that gives 50% inhibition. In general, Kd refers to the concentration at which binding is half-saturated. Low readings indicate a tighter complex, high ones a looser complex.

T1 sequence (Q9HCE7 341-757): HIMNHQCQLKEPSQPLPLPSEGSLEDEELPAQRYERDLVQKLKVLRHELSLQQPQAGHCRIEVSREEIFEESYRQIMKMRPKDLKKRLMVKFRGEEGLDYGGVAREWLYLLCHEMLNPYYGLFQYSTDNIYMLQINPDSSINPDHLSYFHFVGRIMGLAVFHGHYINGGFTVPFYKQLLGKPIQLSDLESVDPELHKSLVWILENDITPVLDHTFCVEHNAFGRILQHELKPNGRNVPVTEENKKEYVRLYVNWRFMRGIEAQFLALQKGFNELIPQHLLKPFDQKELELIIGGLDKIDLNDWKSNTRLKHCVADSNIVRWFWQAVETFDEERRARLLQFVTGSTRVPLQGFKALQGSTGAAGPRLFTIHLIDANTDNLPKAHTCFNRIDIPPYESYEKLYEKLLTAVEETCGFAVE
Chain of Smurf1 FL (Q9HCE7 whole entry): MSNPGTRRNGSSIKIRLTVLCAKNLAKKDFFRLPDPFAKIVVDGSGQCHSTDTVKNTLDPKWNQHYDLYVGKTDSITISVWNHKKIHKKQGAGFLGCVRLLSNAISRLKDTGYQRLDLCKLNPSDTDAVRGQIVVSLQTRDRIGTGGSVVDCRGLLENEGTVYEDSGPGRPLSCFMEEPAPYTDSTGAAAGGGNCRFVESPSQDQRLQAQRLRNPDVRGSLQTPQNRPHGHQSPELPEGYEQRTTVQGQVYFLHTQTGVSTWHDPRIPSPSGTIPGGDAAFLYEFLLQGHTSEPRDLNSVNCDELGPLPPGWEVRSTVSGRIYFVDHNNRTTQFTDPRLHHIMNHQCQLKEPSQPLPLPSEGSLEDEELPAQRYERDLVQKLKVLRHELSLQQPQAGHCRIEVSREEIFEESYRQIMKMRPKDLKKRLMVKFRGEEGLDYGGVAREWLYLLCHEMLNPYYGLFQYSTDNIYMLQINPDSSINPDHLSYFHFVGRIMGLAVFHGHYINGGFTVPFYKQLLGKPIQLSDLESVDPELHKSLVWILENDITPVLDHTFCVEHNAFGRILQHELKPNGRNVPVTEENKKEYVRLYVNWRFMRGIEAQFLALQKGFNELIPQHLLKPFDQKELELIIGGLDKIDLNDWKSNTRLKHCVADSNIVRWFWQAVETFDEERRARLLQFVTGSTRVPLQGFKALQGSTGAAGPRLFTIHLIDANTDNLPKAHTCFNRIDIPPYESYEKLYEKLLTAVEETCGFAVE

Regarding `Cc1c(C(=O)Nc2c(C)n(C)n(C3CCCCC3)c2=O)nnn1-c1ccc(OC(F)(F)F)cc1Cl` [compound 2], in assay [1], inhibition was half-maximal at 3100 nM (IC50). Further, binding in assay [2] was characterised by a dissociation constant (Kd) of 54500 ± 2000 nM.

For the compound `Cc1c(NC(=O)c2noc3c2CCSc2cc(OC(F)(F)F)ccc2-3)c(=O)n(C2CCCCC2)n1C` [compound 1], the IC50 in assay [3] was 230 nM; in assay [1], 140 nM; in assay [4] it was 450 nM. In addition, the Kd in assay [2] was determined as 25800 ± 2200 nM.

For the origin of these results see paper doi:10.1101/2023.10.14.562361v1 (biorxiv, 2023).
